According to patent US20240342292A1, “Compounds for the Degradation of EGFR Kinase” (BeiGene Switzerland GmbH, priority 2021, published 2024):

Key:
Del19/T790M/C797S EGFR = assay: EGFR degradation HTRF assay in H1975-clone #28 (DTC) cells; type: cell-based; conditions: H1975 # 28 DTC (Del19/T790M/C797S), 16h treatment; for DC50: HTRF; for Dmax (%): maximum percentage of degradation
In short: (§1)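 DC50 from a four-parameter fit of HTRF signal. H1975 mutant-EGFR clones with endogenous EGFR knocked out; 16 h treatment, 10 uM top, 5-fold × 8.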

L858R/T790M/C797S EGFR = target: T1, L858R/T790M/C797S EGFR (Homo sapiens, UniProt P00533, C797S/L858R/T790M); assay: EGFR degradation HTRF assay in H1975-clone #25 (LTC) cells; type: cell-based; conditions: 16h treatment; for DC50: H1975 # 25-LTC (L858R/T790M/C797S), HTRF; for Dmax: NCI-H1975, H1975 # 25-LTC (L858R/T790M/C797S), maximum percentage of degradation
T1 construct: expressed in transfected cells; host or cells: H1975 clone #25 (lentiviral over-expression, endogenous EGFR knocked out by sgRNA)
In short: as §1

T1 sequence (P00533 25-1210 T790M/C797S/L858R): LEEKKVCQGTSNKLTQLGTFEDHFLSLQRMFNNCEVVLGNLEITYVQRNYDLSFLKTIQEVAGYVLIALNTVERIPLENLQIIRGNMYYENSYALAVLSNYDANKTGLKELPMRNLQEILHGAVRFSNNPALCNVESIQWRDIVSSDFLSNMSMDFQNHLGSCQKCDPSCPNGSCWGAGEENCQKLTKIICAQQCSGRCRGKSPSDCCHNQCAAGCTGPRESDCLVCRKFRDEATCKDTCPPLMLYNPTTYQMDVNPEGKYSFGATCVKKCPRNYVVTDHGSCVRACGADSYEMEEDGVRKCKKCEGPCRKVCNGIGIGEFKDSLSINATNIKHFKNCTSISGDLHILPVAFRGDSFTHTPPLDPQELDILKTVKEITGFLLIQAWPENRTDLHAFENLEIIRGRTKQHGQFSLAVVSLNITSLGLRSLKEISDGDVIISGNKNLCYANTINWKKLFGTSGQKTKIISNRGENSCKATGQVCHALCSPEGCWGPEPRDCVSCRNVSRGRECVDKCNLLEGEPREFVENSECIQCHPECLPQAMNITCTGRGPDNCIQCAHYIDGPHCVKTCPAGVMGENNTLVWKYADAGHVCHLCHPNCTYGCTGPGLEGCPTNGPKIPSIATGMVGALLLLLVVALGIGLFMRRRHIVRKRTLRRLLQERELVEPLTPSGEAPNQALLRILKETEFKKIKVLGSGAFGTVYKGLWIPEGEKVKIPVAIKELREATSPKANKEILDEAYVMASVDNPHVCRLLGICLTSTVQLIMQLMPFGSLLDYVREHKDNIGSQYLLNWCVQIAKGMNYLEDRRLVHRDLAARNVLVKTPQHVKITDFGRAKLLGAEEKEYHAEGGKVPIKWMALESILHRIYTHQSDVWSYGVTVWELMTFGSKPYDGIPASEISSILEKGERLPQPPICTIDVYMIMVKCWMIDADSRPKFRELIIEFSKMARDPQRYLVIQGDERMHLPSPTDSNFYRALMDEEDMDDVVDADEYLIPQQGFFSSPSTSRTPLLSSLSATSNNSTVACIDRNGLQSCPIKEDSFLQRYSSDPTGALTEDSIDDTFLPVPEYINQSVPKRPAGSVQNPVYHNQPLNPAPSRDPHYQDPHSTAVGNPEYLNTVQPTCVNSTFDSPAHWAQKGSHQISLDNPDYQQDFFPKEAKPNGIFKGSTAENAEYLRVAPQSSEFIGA

Structure (SMILES)	DC50 (Del19/T790M/C797S EGFR) [nM]	DC50 (L858R/T790M/C797S EGFR) [nM]	Dmax (L858R/T790M/C797S EGFR) [%]	Dmax (%) (Del19/T790M/C797S EGFR)
Cc1cc2cc(n1)-c1cnn(C)c1OCCC[C@H](C)CN1/C(=N/C2=O)Nc2c(C)cc(CN3CCN(C(=O)C4CN(c5cc(F)c([C@H]6CCC(=O)NC6=O)c(F)c5)C4)CC3)cc21 [Example 154, (R)-3-(2,6-difluoro-4-(3-(4-(((S,E)-11,26,54,7-tetramethyl-3-oxo-5^2,5^1-dihydro-1^1H,5^1H-11-oxa-4-aza-5(2,1)-benzo[d]imidazola-2(2,4)-pyridina-1(4,5)-pyrazolacycloundecaphane-5^6-yl)methyl)piperazine-1-carbonyl)azetidin-1-yl)phenyl)piperidine-2,6-dione]	0.994	0.998	79.4	78.94
Cc1cc2cc(n1)-c1cnn(C)c1OCCC[C@@H](C)CN1/C(=N/C2=O)Nc2ccc(N3CCC(N4CCC(Oc5cc(F)c([C@H]6CCC(=O)NC6=O)c(F)c5)CC4)CC3)cc21 [Example 381, (R)-3-(2,6-difluoro-4-((1′-((R,E)-1^1,2^6,7-trimethyl-3-oxo-5^2,5^3-dihydro-1^1H,5^1H-11-oxa-4-aza-5(2,1)-benzo[d]imidazola-2(2,4)-pyridina-1(4,5)-pyrazolacycloundecaphane-5^6-yl)-[1,4′-bipiperidin]-4-yl)oxy)phenyl)piperidine-2,6-dione]	1.06	0.9	83.6	60.14
Cc1cc2cc(n1)-c1cnn(C)c1OCCC[C@@H](C)CN1/C(=N/C2=O)Nc2ccc(C(=O)N(C)[C@@H]3CCN(CCNc4cc(F)c([C@H]5CCC(=O)NC5=O)c(F)c4)C[C@@H]3F)cc21 [Example 350, (R,E)-N—((3S,4R)-1-(2-((4-((R)-2,6-dioxopiperidin-3-yl)-3,5-difluorophenyl)amino)ethyl)-3-fluoropiperidin-4-yl)-N,1^1,2^6,7-tetramethyl-3-oxo-5^2,5^3-dihydro-1^1H,5^1H-11-oxa-4-aza-5(2,1)-benzo[d]imidazola-2(2,4)-pyridina-1(4,5)-pyrazolacycloundecaphane-5^6-carboxamide]	0.662	0.614	90.4	86.74
Cc1cc2cc(n1)-c1cnn(C3CC3)c1OCCC[C@@H](C)CN1/C(=N/C2=O)Nc2ccc(CN3CCN(C(=O)[C@H]4CN(c5cc(F)c([C@H]6CCC(=O)NC6=O)c(F)c5)CC4(C)C)CC3)cc21 [Example 165, (R)-3-(4-((R)-4-(4-(((R,E)-11-cyclopropyl-2^6,7-dimethyl-3-oxo-5^2,5^3-dihydro-1^1H,5^1H-11-oxa-4-aza-5(2,1)-benzo[d]imidazola-2(2,4)-pyridina-1(4,5)-pyrazolacycloundecaphane-5^6-)n-methyl)piperazine-1-carbonyl)-3,3-dimethylpyrrolidin-1-yl)-2,6-difluorophenyl)piperidine-2,6-dione]	2.95	3.1	79.9	74.73
Cc1cc2cc(n1)-c1cnn(C)c1OCCC[C@@H](C)CN1/C(=N/C2=O)Nc2ccc(CN(C)[C@@H]3CCCN(C(=O)[C@@H]4CCN(c5cc(F)c([C@H]6CCC(=O)NC6=O)c(F)c5)C4)C3)cc21 [Example 318, (R)-3-(2,6-difluoro-4-((R)-3-((R)-3-(methyl(((R,E)-1^1,2^6,7-trimethyl-3-oxo-5^2,53-dihydro-1^1H,5^1H-11-oxa-4-aza-5(2,1)-benzo[d]imidazola-2(2,4)-pyridina-1(4,5)-pyrazolacycloundecaphane-5^6-yl)methyl)amino)piperidine-1-carbonyl)pyrrolidin-1-yl)phenyl)piperidine-2,6-dione]	0.995	1.33	76.4	67.67

Now from value to compound, other results behind:

DC50 (Del19/T790M/C797S EGFR) [nM]	DC50 (L858R/T790M/C797S EGFR) [nM]	Dmax (L858R/T790M/C797S EGFR) [%]	Structure (SMILES)	Dmax (%) (Del19/T790M/C797S EGFR)
0.598	0.716	87.1	Cc1cc2cc(n1)-c1cnn(C)c1OCCC[C@@H](C)CN1/C(=N/C2=O)Nc2ccc(CN3CCN(C(=O)[C@@H]4CCN(c5cc(F)c([C@H]6CCC(=O)NC6=O)c(F)c5)C4)C[C@H]3CO)cc21 [Example 196, (R)-3-(2,6-difluoro-4-((R)-3-((S)-3-(hydroxymethyl)-4-(((R,E)-1^1,2^6,7-trimethyl-3-oxo-5^2,5^3-dihydro-1^1H,5^1H-11-oxa-4-aza-5(2,1)-benzo[d]imidazola-2(2,4)-pyridina-1(4,5)-pyrazolacycloundecaphane-56-yl)methyl)piperazine-1-carbonyl)pyrrolidin-1-yl)phenyl)piperidine-2,6-dione]	78.44
0.614	0.742	84.3	Cc1cc2cc(n1)-c1cnn(C)c1OCCC[C@@H](C)CN1/C(=N/C2=O)Nc2ccc(C(=O)N3CC(N(C)CCc4cc(F)c([C@H]5CCC(=O)NC5=O)c(F)c4)C3)cc21 [Example 306, (R)-3-(2,6-difluoro-4-(2-(methyl(1-((R,E)-1^1,2^6,7-trimethyl-3-oxo-5^2,5^3-dihydro-1^1H,5^1H-11-oxa-4-aza-5(2,1)-benzo[d]imidazola-2(2,4)-pyridina-1(4,5)-pyrazolacycloundecaphane-5^6-carbonyl)azetidin-3-yl)amino)ethyl)phenyl)piperidine-2,6-dione]	63.09
0.614	0.643	87.5	COC[C@H]1CN(C(=O)C2CCN(c3ccc4c(c3)N3C[C@H](C)CCCOc5c(cnn5C)-c5cc(cc(C)n5)C(=O)/N=C/3N4)CC2)CCN1c1cc(F)c([C@H]2CCC(=O)NC2=O)c(F)c1 [Example 363, (R)-3-(2,6-difluoro-4-((R)-2-(methoxymethyl)-4-(1-((R,E)-1^1,2^6,7-trimethyl-3-oxo-5^2,5^3-dihydro-1^1H,5^1H-11-oxa-4-aza-5(2,1)-benzo[d]imidazola-2(2,4)-pyridina-1(4,5)-pyrazolacycloundecaphane-5^6-yl)piperidine-4-carbonyl)piperazin-1-yl)phenyl)piperidine-2,6-Dione]	78.54
0.657	0.752	82.9	Cc1cc2cc(n1)-c1cnn(C)c1OCCC[C@@H](C)CN1/C(=N/C2=O)Nc2ccc(C(=O)N(CCN3CCN(c4cc(F)c([C@H]5CCC(=O)NC5=O)c(F)c4)CC3)C(C)C)cc21 [Example 282, (R,E)-N-(2-(4-(4-((R)-2,6-dioxopiperidin-3-yl)-3,5-difluorophenyl)piperazin-1-yl)ethyl)-N-isopropyl-1^1,2^6,7-trimethyl-3-oxo-5^2,5^3-dihydro-1^1H,5^1H-11-oxa-4-aza-5(2,1)-benzo[d]imidazola-2(2,4)-pyridina-1(4,5)-pyrazolacycloundecaphane-5^6-carboxamide]	77.76
0.638	0.316	92.7	Cc1cc2cc(n1)-c1cnn(C)c1OCCC[C@@H](C)CN1/C(=N/C2=O)Nc2ccc(C(=O)N[C@@H]3CCN(CCc4cc(F)c([C@H]5CCC(=O)NC5=O)c(F)c4)[C@H](C)C3)cc21 [Example 269, (R,E)-N—((2R,4R)-1-(4-((R)-2,6-dioxopiperidin-3-yl)-3,5-difluorophenethyl)-2-methylpiperidin-4-yl)-1^1,2^6,7-trimethyl-3-oxo-5^2,5^3-dihydro-1^1H,5^1H-11-oxa-4-aza-5(2,1)-benzo[d]imidazola-2(2,4)-pyridina-1(4,5)-pyrazolacycloundecaphane-5^6-carboxamide]	82.6
